From patent publication US9402398B2, “Herbicidal compounds” (SYNGENTA PARTICIPATIONS AG, priority 2012, dated 2016)

What was measured:
Assay type in all cases: in vivo
Solanum nigrum (SOLNI) [1] = test: Herbicidal glasshouse test, post-emergence; conditions: post-emergence (sprayed after 8 days cultivation), 1000 g/h, evaluated after 13 days
Procedure: (§1) Seeds of a variety of test species are sown in standard soil in pots (Alopecurus myosuroides (ALOMY), Setaria faberi (SETFA), Echinochloa crus-galli (ECHCG), Solanum nigrum (SOLNI), Amaranthus retoflexus (AMARE), Ipomoea hederacea (IPOHE)). After cultivation for one day (pre-emergence) or after 8 days cultivation (post-emergence) under controlled conditions in a glasshouse (at 24/16° C., day/night; 14 hours light; 65% humidity), the plants are sprayed with an aqueous spray solution derived from the formulation of the technical active ingredient in acetone/water (50:50) solution containing 0.5% Tween 20 (polyoxyethelyene sorbitan monolaurate, CAS RN 9005-64-5). Compounds are applied at 1000 g/h. The test plants are then grown in a glasshouse under controlled conditions in a glasshouse (at 24/16° C., day/night; 14 hours light; 65% humidity) and watered twice daily. After 13 days for pre and post-emergence, the test is evaluated for the percentage damage caused to the plant. The biological activities are shown in the following table on a five point scale (5=80-100%; 4=60-79%; 3=40-59%; 2=20-39%; 1=0-19%).

[2] = test system: Ipomoea hederacea (IPOHE); test: Herbicidal glasshouse test, post-emergence; conditions: post-emergence (sprayed after 8 days cultivation), 1000 g/h, evaluated after 13 days
Procedure: as §1

Setaria faberi (SETFA) [3] = test: Herbicidal glasshouse test, post-emergence; conditions: post-emergence (sprayed after 8 days cultivation), 1000 g/h, evaluated after 13 days
Procedure: as §1

[4] = test system: Echinochloa crus-galli (ECHCG); test: Herbicidal glasshouse test, post-emergence; conditions: post-emergence (sprayed after 8 days cultivation), 1000 g/h, evaluated after 13 days
Procedure: as §1

[5] = test system: Alopecurus myosuroides (ALOMY); test: Herbicidal glasshouse test, post-emergence; conditions: post-emergence (sprayed after 8 days cultivation), 1000 g/h, evaluated after 13 days
Procedure: as §1

[6] = test system: Amaranthus retoflexus (AMARE); test: Herbicidal glasshouse test, post-emergence; conditions: post-emergence (sprayed after 8 days cultivation), 1000 g/h, evaluated after 13 days
Procedure: as §1

Solanum nigrum (SOLNI) [7] = test: Herbicidal glasshouse test, pre-emergence; conditions: pre-emergence (sprayed after cultivation for one day), 1000 g/h, evaluated after 13 days
Procedure: as §1

[8] = test system: Ipomoea hederacea (IPOHE); test: Herbicidal glasshouse test, pre-emergence; conditions: pre-emergence (sprayed after cultivation for one day), 1000 g/h, evaluated after 13 days
Procedure: as §1

Setaria faberi (SETFA) [9] = test: Herbicidal glasshouse test, pre-emergence; conditions: pre-emergence (sprayed after cultivation for one day), 1000 g/h, evaluated after 13 days
Procedure: as §1

[10] = test system: Echinochloa crus-galli (ECHCG); test: Herbicidal glasshouse test, pre-emergence; conditions: pre-emergence (sprayed after cultivation for one day), 1000 g/h, evaluated after 13 days
Procedure: as §1

[11] = test system: Alopecurus myosuroides (ALOMY); test: Herbicidal glasshouse test, pre-emergence; conditions: pre-emergence (sprayed after cultivation for one day), 1000 g/h, evaluated after 13 days
Procedure: as §1

[12] = test system: Amaranthus retoflexus (AMARE); test: Herbicidal glasshouse test, pre-emergence; conditions: pre-emergence (sprayed after cultivation for one day), 1000 g/h, evaluated after 13 days
Procedure: as §1

Row | Compound | percentage damage caused to the plant, five point scale, POST Application SOLNI (Solanum nigrum (SOLNI) [1]) | percentage damage caused to the plant, five point scale, POST Application IPOHE [2] | percentage damage caused to the plant, five point scale, POST Application SETFA (Setaria faberi (SETFA) [3]) | percentage damage caused to the plant, five point scale, POST Application ECHCG [4] | percentage damage caused to the plant, five point scale, POST Application ALOMY [5] | percentage damage caused to the plant, five point scale, POST Application AMARE [6] | percentage damage caused to the plant, five point scale, PRE Application SOLNI (Solanum nigrum (SOLNI) [7]) | percentage damage caused to the plant, five point scale, PRE Application IPOHE [8] | percentage damage caused to the plant, five point scale, PRE Application SETFA (Setaria faberi (SETFA) [9]) | percentage damage caused to the plant, five point scale, PRE Application ECHCG [10] | percentage damage caused to the plant, five point scale, PRE Application ALOMY [11] | percentage damage caused to the plant, five point scale, PRE Application AMARE [12]
1 | Cc1cc(C(=O)Nc2nnnn2C)c(=O)n(-c2ccccc2)n1 [Compound 1.001] | 5 (5=80-100%) | 4 (4=60-79%) | 3 (3=40-59%) | 5 (5=80-100%) | 5 (5=80-100%) | 4 (4=60-79%) | 5 (5=80-100%) | 3 (3=40-59%) | 3 (3=40-59%) | 4 (4=60-79%) | 5 (5=80-100%) | 5 (5=80-100%)
2 | Cc1cc(C(=O)Nc2nnnn2C)c(=O)n(-c2cc(Cl)cc(Cl)c2)n1 [Compound 1.005] | 5 (5=80-100%) | 5 (5=80-100%) | 5 (5=80-100%) | 5 (5=80-100%) | 5 (5=80-100%) | 5 (5=80-100%) | 5 (5=80-100%) | 5 (5=80-100%) | 5 (5=80-100%) | 5 (5=80-100%) | 5 (5=80-100%) | 5 (5=80-100%)
3 | C=Cc1ccc(-n2nc(C)cc(C(=O)Nc3nnnn3C)c2=O)cc1 [Compound 1.008] | 5 (5=80-100%) | 5 (5=80-100%) | 5 (5=80-100%) | 5 (5=80-100%) | 5 (5=80-100%) | 5 (5=80-100%) | 5 (5=80-100%) | 2 (2=20-39%) | 5 (5=80-100%) | 4 (4=60-79%) | 5 (5=80-100%) | 5 (5=80-100%)
